# From patent US20240148821A1, “PHARMACEUTICAL USE OF CYCLIC PEPTIDE COMPOUND” (CHUGAI SEIYAKU KABUSHIKI KAISHA, priority 2021, published 2024)
# Numbered stars: 1 amine (or outer) side, 2 acyl side, 3 side chain; on linkers, the order of the positions; unused ones are H or OH. Bridge positions count the residues as written; N and C are the ends. Square brackets hold non-standard residues; d marks the D form. Peptide text beside a SMILES is read from it. * marks the point of attachment. hPhe(3,5-F2-4-CF3) = N[C@@H](CCc1cc(F)c(C(F)(F)F)c(F)c1)C(=O)O; hPhe(3-Cl-4-CF3) = N[C@@H](CCc1ccc(C(F)(F)F)c(Cl)c1)C(=O)O; hPhe(3-F,4-CF3) = N[C@@H](CCc1ccc(C(F)(F)F)c(F)c1)C(=O)O; X27 = CN([C@@H](Cc1ccc(C(F)(F)F)nc1)C(=O)[*:2])[*:1]; hPhe(4-CF3) = N[C@@H](CCc1ccc(C(F)(F)F)cc1)C(=O)O; NEtPhe(4-Me) = CCN[C@@H](Cc1ccc(C)cc1)C(=O)O; NMePhe(4-Cl) = CN[C@@H](Cc1ccc(Cl)cc1)C(=O)O; NMePhe(4-Me) = CN[C@@H](Cc1ccc(C)cc1)C(=O)O; NMedβ3hAla = C[C@H](CC(=O)[*:2])N(C)[*:1]; NMeGly(cPent) = CN[C@H](C(=O)O)C1CCCC1; X136 = O=C(CN(CCN1CCNCC1)[*:1])[*:2]; NMeCha = CN[C@@H](CC1CCCCC1)C(=O)O; X82 = O=C(CN(CCC1CNC1)[*:1])[*:2]; Hyp = O=C(O)[C@@H]1C[C@@H](O)CN1; NMeChg = CN[C@H](C(=O)O)C1CCCCC1; NMeI = CC[C@H](C)[C@H](NC)C(=O)O; X138 = NCCOCCN(CC(=O)[*:2])[*:1]; X58 = CNCCOCCN(CC(=O)[*:2])[*:1]; Cha = N[C@@H](CC1CCCCC1)C(=O)O; NMeD = CN[C@@H](CC(=O)O)C(=O)O; NMeL = CN[C@@H](CC(C)C)C(=O)O; NMePra = C#CC[C@H](NC)C(=O)O; NMeV = CN[C@H](C(=O)O)C(C)C; hSer = N[C@@H](CCO)C(=O)O; NMeA = CN[C@@H](C)C(=O)O; NMeAib = CNC(C)(C)C(=O)O; Piperidide = C1CCN(*)CC1; Pyrrolidide = C1CCN(*)C1; Ac5c = NC1(C(=O)O)CCCC1; Aze = O=C(O)[C@@H]1CCN1; Alloc = C=CCOC(=O)*; NEtG = CCNCC(=O)O; Sar = CNCC(=O)O
# What was measured:
# [1] = biological target: protein-protein interaction between Kras and SOS1 (biotin-tagged human Kras loaded with GDP, His-tagged human SOS1) (Homo sapiens (Human), UniProt P01116, G12D); test: Protein-protein interaction inhibition between Kras and SOS1 (KrasG12D-SOS PPI) using AlphaScreen; type: biochemical; details: AlphaScreen; biotin-tagged human Kras loaded with GDP, His-tagged human SOS1; read-out: KRAS G12D-SOS PPI IC50;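 note: kras produced in E. coli, Ni-coupled donor beads and streptavidin acceptor beads, excitation 680 nm with emission detected at 520–620 nm via singlet oxygen transfer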
# [2] = tested on: Human pancreatic cancer cell line AsPC-1 (G12D mutation Kras); test: AsPC-1 cell growth inhibition (AsPC-1 CGI); type: cell-based; details: read-out: AsPC-1 cell growth inhibition, 50% growth inhibitory concentration (IC50 value); 96 hours, CellTiter-Glo, values classified in ranges
# Description: Test compounds were serially dilated with dimethyl sulfoxide, and 200 nL was then dispensed to a U-bottom 96-well plate using Labcyte Echo. […] The cell suspension was dispensed to a. plate containing a test compound at 100 μL per well and incubated at 37° C. in a 5% carbon dioxide gas incubator. 96 hours later, 80 μL of CellTiter-Glo (Promega) was added to each well and fluorescence was measured.
Compound,IC50 [1] [nM],IC50 [2] [nM]
CC(C)C[C@H]1C(=O)N[C@@H](CC2CCCCC2)C(=O)N(C)CC(=O)N(C)CC(=O)N(C)[C@@H](CC2CCCCC2)C(=O)N(C)CC(=O)N[C@@H](CCc2ccc(C(F)(F)F)c(Cl)c2)C(=O)N2CCC[C@H]2C(=O)NC2(CCCC2)C(=O)N(C)[C@@H](C2CCCCC2)C(=O)N(C)[C@H](C(=O)N2CCCCC2)CC(=O)N1C [Compound 1] ([NMeL][Cha][Sar][Sar][NMeCha][Sar][hPhe(3-Cl-4-CF3)]P[Ac5c][NMeChg][NMeD]-Piperidide; lactam N-11),5.9,> 500
CC[C@H](C)[C@@H]1NC(=O)[C@H](CC(C)C)N(C)C(=O)C[C@@H](C(=O)N(C)C)N(C)C(=O)[C@H](C2CCCC2)N(C)C(=O)C2(CCCC2)NC(=O)[C@@H]2CCCN2C(=O)[C@H](CCc2ccc(C(F)(F)F)c(Cl)c2)NC(=O)CN(CC)C(=O)[C@H](Cc2ccc(C)cc2)N(C)C(=O)[C@@H]2CCN2C(=O)[C@H](C)N(C)C1=O [Compound 5] ([NMeL]I[NMeA][Aze][NMePhe(4-Me)][NEtG][hPhe(3-Cl-4-CF3)]P[Ac5c][NMeGly(cPent)][NMeD]-NMe2; lactam N-11),0.99,≤ 20
CC[C@H](C)[C@@H]1NC(=O)[C@H](CC(C)C)N(C)C(=O)C[C@@H](C(=O)N2CCCCC2)N(C)C(=O)[C@H](C2CCCCC2)N(C)C(=O)C2(CCCC2)NC(=O)[C@H](Cc2ccc(C(F)(F)F)nc2)N(C)C(=O)[C@H](CCc2ccc(C(F)(F)F)c(Cl)c2)NC(=O)CN(C)C(=O)[C@H](CC2CCCCC2)N(C)C(=O)CN(C)C(=O)CN(C)C1=O [Compound 10] ([NMeL]I[Sar][Sar][NMeCha][Sar][hPhe(3-Cl-4-CF3)][X27][Ac5c][NMeChg][NMeD]-Piperidide; lactam N-11),18,> 500
C=CCOC(=O)NCCCC[C@@H]1NC(=O)[C@H](CCc2ccc(C(F)(F)F)cc2)NC(=O)CN(C)C(=O)[C@H](Cc2ccc(Cl)cc2)N(C)C(=O)CN(C)C(=O)CN(C)C(=O)[C@H]([C@@H](C)CC)NC(=O)[C@H](CC(C)C)N(C)C(=O)C[C@@H](C)N(C)C(=O)[C@H](CC(C)C)NC(=O)C(C)(C)N(C)C1=O [Compound 12] (cyclo(I[Sar][Sar][NMePhe(4-Cl)][Sar][hPhe(4-CF3)]K(Alloc)[NMeAib]L[NMedβ3hAla][NMeL])),240,> 500
"CC[C@H](C)[C@@H]1NC(=O)[C@H](CC(C)C)N(C)C(=O)C[C@@H](C(=O)N(C)C)N(C)C(=O)[C@H](C2CCCC2)N(C)C(=O)C2(CCCC2)NC(=O)[C@@H]2CCCN2C(=O)[C@H](CCc2ccc(C(F)(F)F)c(F)c2)NC(=O)CN(C)C(=O)[C@H](Cc2ccc(C)cc2)N(C)C(=O)[C@@H]2CCN2C(=O)[C@H](C)N(C)C1=O [Compound 16] ([NMeL]I[NMeA][Aze][NMePhe(4-Me)][Sar][hPhe(3-F,4-CF3)]P[Ac5c][NMeGly(cPent)][NMeD]-NMe2; lactam N-11)",0.7,≤ 20
COCC[C@@H]1NC(=O)[C@H](CC(C)C)N(C)C(=O)C[C@@H](C(=O)N2CCCCC2)N(C)C(=O)[C@H](C(C)C)N(C)C(=O)C2(CCCC2)NC(=O)[C@@H]2CCCN2C(=O)[C@H](CCc2ccc(C(F)(F)F)c(Cl)c2)NC(=O)CN(C)C(=O)[C@H](CC2CCCCC2)N(C)C(=O)[C@@H]2CCN2C(=O)[C@H](C)N(C)C1=O [Compound 17] ([NMeL][hSer](Me)[NMeA][Aze][NMeCha][Sar][hPhe(3-Cl-4-CF3)]P[Ac5c][NMeV][NMeD]-Piperidide; lactam N-11),30,> 500
"CC[C@H](C)[C@@H]1NC(=O)[C@H](CC(C)C)N(C)C(=O)C[C@@H](C(=O)N2CCCC2)N(C)C(=O)[C@H](C2CCCC2)N(C)C(=O)C2(CCCC2)NC(=O)[C@@H]2CCCN2C(=O)[C@H](CCc2ccc(C(F)(F)F)c(F)c2)NC(=O)CN(C)C(=O)[C@H](Cc2ccc(C)cc2)N(C)C(=O)[C@@H]2CCN2C(=O)[C@H](C)N(C)C1=O [Compound 20] ([NMeL]I[NMeA][Aze][NMePhe(4-Me)][Sar][hPhe(3-F,4-CF3)]P[Ac5c][NMeGly(cPent)][NMeD]-Pyrrolidide; lactam N-11)",0.76,≤ 20
C#CC[C@H]1C(=O)N(C)CC(=O)N[C@@H](CCc2ccc(C(F)(F)F)c(Cl)c2)C(=O)N2CCC[C@H]2C(=O)NC2(CCCC2)C(=O)N(C)[C@@H](C(C)C)C(=O)N(C)[C@H](C(=O)N2CCCCC2)CC(=O)N(C)[C@@H](CC(C)C)C(=O)N[C@@H]([C@@H](C)CC)C(=O)N(C)[C@@H](C)C(=O)N2CC[C@H]2C(=O)N1C [Compound 32] ([NMeL]I[NMeA][Aze][NMePra][Sar][hPhe(3-Cl-4-CF3)]P[Ac5c][NMeV][NMeD]-Piperidide; lactam N-11),20,> 500
"CCO[C@@H]1C[C@H]2C(=O)NC3(CCCC3)C(=O)N(C)[C@@H]([C@@H](C)CC)C(=O)N(C)[C@H](C)CC(=O)N(C)[C@@H](CC(C)C)C(=O)N[C@@H]([C@@H](C)CC)C(=O)N(C)[C@@H](C)C(=O)N3CC[C@H]3C(=O)N(CC)[C@@H](Cc3ccc(C)cc3)C(=O)N(C)CC(=O)N[C@@H](CCc3cc(F)c(C(F)(F)F)c(F)c3)C(=O)N2C1 [Compound 33] (cyclo([Ac5c][NMeI][NMedβ3hAla][NMeL]I[NMeA][Aze][NEtPhe(4-Me)][Sar][hPhe(3,5-F2-4-CF3)][Hyp](Et)))",6.9,≤ 20
"CC[C@H](C)[C@@H]1NC(=O)[C@H](CC(C)C)N(C)C(=O)C[C@@H](C(=O)N(C)C)N(C)C(=O)[C@H](C2CCCC2)N(C)C(=O)C2(CCCC2)NC(=O)CN(CCC2CNC2)C(=O)[C@H](CCc2ccc(C(F)(F)F)c(F)c2)NC(=O)CN(C)C(=O)[C@H](CC2CCCCC2)N(C)C(=O)[C@@H]2CCN2C(=O)[C@H](C)N(C)C1=O [Compound 2182, (3S,6S,9S,13S,16S,25S,31S,34S)-23-[2-(azetidin-3-yl)ethyl]-31-(cyclohexylmethyl)-16-cyclopentyl-25-[2-[3-fluoro-4-(trifluoromethyl)phenyl]ethyl]-9-isobutyl-N,N,3,4,10,14,17,29,32-nonamethyl-6-[(1S)-1-methylpropyl]-2,5,8,11,15,18,21,24,27,30,33-undecaoxo-spiro[1,4,7,10,14,17,20,23,26,29,32-undecazabicyclo[32.2.0]hexatriacontane-19,1′-cyclopentane]-13-carboxamide] ([NMeL]I[NMeA][Aze][NMeCha][Sar][hPhe(3-F,4-CF3)][X82][Ac5c][NMeGly(cPent)][NMeD]-NMe2; lactam N-11)",3.6,
"CC[C@H](C)[C@@H]1NC(=O)[C@H](CC(C)C)N(C)C(=O)C[C@@H](C(=O)N(C)C)N(C)C(=O)[C@H](C2CCCC2)N(C)C(=O)C2(CCCC2)NC(=O)CN(CCOCCNC)C(=O)[C@H](CCc2ccc(C(F)(F)F)c(Cl)c2)NC(=O)CN(C)C(=O)[C@H](CC2CCCCC2)N(C)C(=O)[C@@H]2CCN2C(=O)[C@H](C)N(C)C1=O [Compound 2183, (3S,6S,9S,13S,16S,25S,31S,34S)-25-[2-[3-chloro-4-(trifluoromethyl)phenyl]ethyl]-31-(cyclohexylmethyl)-16-cyclopentyl-9-isobutyl-N,N,3,4,10,14,17,29,32-nonamethyl-23-[2-[2-(methylamino)ethoxy]ethyl]-6-[(1S)-1-methylpropyl]-2,5,8,11,15,18,21,24,27,30,33-undecaoxo-spiro[1,4,7,10,14,17,20,23,26,29,32-undecazabicyclo[32.2.0]hexatriacontane-19,1′-cyclopentane]-13-carboxamide] ([NMeL]I[NMeA][Aze][NMeCha][Sar][hPhe(3-Cl-4-CF3)][X58][Ac5c][NMeGly(cPent)][NMeD]-NMe2; lactam N-11)",1.9,
"CC[C@H](C)[C@@H]1NC(=O)[C@H](CC(C)C)N(C)C(=O)C[C@@H](C(=O)N2CCCCC2)N(C)C(=O)[C@H](C2CCCCC2)N(C)C(=O)C2(CCCC2)NC(=O)CN(CCN2CCNCC2)C(=O)[C@H](CCc2ccc(C(F)(F)F)c(Cl)c2)NC(=O)CN(C)C(=O)[C@H](CC2CCCCC2)N(C)C(=O)CN(C)C(=O)CN(C)C1=O [Compound 2184, (11S,17S,26S,29S,33S,36S)-11-[2-[3-chloro-4-(trifluoromethyl)phenyl]ethyl]-36-cyclohexyl-17-(cyclohexylmethyl)-29-isobutyl-15,18,21,24,30,34,37-heptamethyl-26-[(1S)-1-methylpropyl]-9-(2-piperazin-1-ylethyl)-33-(piperidine-1-carbonyl)-6,9,12,15,18,21,24,27,30,34,37-undecazaspiro[4.33]octatriacontane-7.10,13,16,19,22,25,28,31,35,38-undecone] ([NMeL]I[Sar][Sar][NMeCha][Sar][hPhe(3-Cl-4-CF3)][X136][Ac5c][NMeChg][NMeD]-Piperidide; lactam N-11)",7.9,
"CC[C@H](C)[C@@H]1NC(=O)[C@H](CC(C)C)N(C)C(=O)C[C@@H](C(=O)N2CCCCC2)N(C)C(=O)[C@H](C2CCCCC2)N(C)C(=O)C2(CCCC2)NC(=O)CN(CCOCCN)C(=O)[C@H](CCc2ccc(C(F)(F)F)c(Cl)c2)NC(=O)CN(C)C(=O)[C@H](CC2CCCCC2)N(C)C(=O)CN(C)C(=O)CN(C)C1=O [Compound 2185, (11S,17S,26S,29S,33S,36S)-9-[2-(2-aminoethoxy)ethyl]-11-[2-[3-chloro-4-(trifluoromethyl)phenyl]ethyl]-36-cyclohexyl-17-(cyclohexylmethyl)-29-isobutyl-15,18,21,24,30,34,37-heptamethyl-26-[(1S)-1-methylpropyl]-33-(piperidine-1-carbonyl)-6,9,12,15,18,21,24,27,30,34,37-undecazaspiro[4.33]octatriacontane-7,10,13,16,19,22,25,28,31,35,38-undecone] ([NMeL]I[Sar][Sar][NMeCha][Sar][hPhe(3-Cl-4-CF3)][X138][Ac5c][NMeChg][NMeD]-Piperidide; lactam N-11)",2.4,
